Series [1] deals with KRAS^Q61H in the GTP state (Homo sapiens, UniProt P01116, Q61H). As to the kind of experiment: MST binding, GTP-state KRAS Q61H.
Series [2] deals with KRAS^G12C in the GTP state (Homo sapiens, UniProt P01116, G12C). The series can be described thus: MST binding, GTP-state KRAS G12C. From the text: (§1) FIGS. 1A-1D show representative data for the predicted binding mode and measured affinity of disclosed compound 11 to KRAS. (FIG. 1A) Structure of the catalytic domain of KRAS used for the virtual screening. Lobe1 (residues 1-86) and lobe2 (residues 87-166) are highlighted in different colors, as well as switches 1 (residues 30-40) and 2 (residues 60-75). The location of the target allosteric pocket p1 is indicated. (FIG. 1B) Chemical structure of compound 11. (FIG. 1C) Predicted binding pose of compound 11, with the key residues that make polar or vdW contacts with the ligand labeled. (FIG. 1D) Microscale thermophoresis (MST) experiments indicating direct binding of compound 11 to KRAS, along with dissociation constants (KD) derived from the curves. Changes in fluorescence upon titration of […] KRAS with increasing concentration of compound are shown: KRAS^WT (red), KRAS^G12C (green), KRAS^G12D (purple) and KRAS^Q61M (blue), each bound to the non-hydrolyzable GTP analogue, guanylyl imidodiphosphate (GNP). The same experiments indicated no binding to GDP-bound KRAS^G12D and KRAS^WT as well as Rap1B, which was used as control. […]

The test system of series [3] is HRAS^G12V. The series can be described thus: Cell signaling (Western) in BHK cells expressing HRAS G12V. It counts as cell-based, hamster. The procedure: Cell signaling. The inhibitory potential of compounds was tested in monoclonal Baby Hamster Kidney (BHK) cell lines stably expressing monomeric green fluorescence protein (mGFP)-tagged KRAS^G12D, K-Ras^G12V and HRAS^G12V. Cells were cultured in Dulbecco's Modified Eagle Medium (DMEM, Hyclone) supplemented with 10% v/v bovine calf serum and incubated with compound or vehicle (DMSO) for 3 h without serum. Cells were then harvested in lysis buffer (50 mM Tris (pH 7.5), 75 mM NaCl, 25 mM NaF, 5 mM MgCl2, 5 mM EGTA, 1 mM dithiothreitol, 100 μM NaVO4, 1% Nonidet P40 plus protease inhibitors) and subjected to Western analysis controlling protein loading by BCA (bicinchoninic acid) assay. Lysates were resolved with Bio-Rad polyacrylamide TGX 10% gel, transferred to polyvinylidene fluoride (PVDF) membrane and immunoblotted using pan-AKT (2920S), GFP (2956S), pAKT^S473 (4060L), p-cRaf^S338 (9427S), p-ERK^T202/Y204 (4370L), ERK1/2 (4695S) or β-actin antibodies (Cell Signaling Technology). IC50 values were calculated with Prism 4-parameter fit.

For series [4], the target named is T1, KRAS^G12D-cRaf interaction (Homo sapiens, UniProt P01116, G12D).
T1 construct: expressed in transfected cells; host or cells: BHK (baby hamster kidney) cells, transient expression
As to the kind of experiment: FLIM-FRET of GFP-KRAS G12D and RFP-cRaf in BHK cells. Type of series: cell-based, hamster. The settings on record: 1 μM. From the text:
[formula] where P1 is polarization of free KRAS, P2 is polarization of Raf-bound KRAS, c is the total concentration of KRAS, and x the total concentration of Raf^RBD. (FIG. 2B) Amount of GFP-KRAS^G12D pulled down by GST-Raf^RBD after treatment of cell lysates with compound at the concentrations indicated (representative Westerns are shown at the top). The RBD sequence length was 1-149 and 51-131 in the fluorescence polarization and pull-down assays, respectively. (FIG. 2C) GFP fluorescence lifetime from FLIM-FRET using cells expressing GFP-KRAS^G12D alone or with RFP-Raf, with or without treatment by 1 μM compound 11. Data are shown as mean±S.E; significance estimated by one-way analysis of variance.
Fluorescence lifetime imaging (FLIM)-fluorescence resonance energy transfer (FRET). FLIM-FRET experiments were carried out using a lifetime fluorescence imaging attachment (Lambert Instruments, The Netherlands) on an inverted microscope (43). BHK cells transiently expressing mGFP-tagged KRAS^G12D (donor), alone or with mRFP-tagged cRaf^WT (acceptor) (using 1:5 ratio), were prepared as indicated in each experiment. The samples were excited using a sinusoidally modulated 3 W 470 nm light-emitting diode at 40 MHz under epi-illumination. Fluorescein was used as a lifetime reference standard. […] The phase and modulation were determined from 12 phase settings using the manufacturer's software. […]

Series [5] deals with KRAS^G12D in the GTP state (Homo sapiens, UniProt P01116, G12D). The series can be described thus: MST binding, GTP-state KRAS G12D.
Description: as §1

The subject of series [6] is KRAS. As to the kind of experiment: MST affinity for KRAS (G12D and other KRAS mutants). It counts as binding, human. The settings on record: MST KD.
Series [7] can be described thus: Solubility in DMSO and common solvents. Type of series: physicochemical. The settings on record: DMSO.

In general, Kd refers to the constant that tells how readily two partners part at equilibrium. On to `Cc1nn2c(N3CCN(CCO)CC3)cc(-c3ccccc3)nc2c1-c1ccccc1` [Compound 11, 2-[4-(8-methyl-3,9-diphenyl-2,6,7-triazabicyclo[4.3.0]nona-2,4,7,9-tetraen-5-yl)piperazin-1-yl]ethanol], for which the Kd in series [1], in series [2] and in series [5] was 400 to 700 nM each time. For the same compound, in series [3], the “effect on p-AKT levels” value is recorded as “no major effect”. Moreover, in series [3], the “effect on p-ERK levels” value was “not and no significant effect”. Besides, the “effect on p-cRaf levels” value in series [3] is “not and no significant effect”. In series [4], the “KRAS^G12D-cRaf interaction (quenching of GFP fluorescence lifetime)” value is “significantly reduced”.

As for `Cc1cc(N2CCN(CCO)CC2)n2nc(C)c(-c3ccccc3)c2n1` [Compound 13], the “weaker affinity for KRAS than compound 11” value in series [6] is given as 6.5-7.1 fold. Moreover, in series [7], the solubility result is recorded as “readily soluble”.

The values above are taken from patent US12251383B2, “Methods and compositions for KRAS inhibitors” (The Board of Regents of the University of Texas System, priority 2019, dated 2025).
